Read-outs that look alike come from different tables or passages of the source.
Test: Pharmacokinetics in Sprague Dawley rats
Format: in vivo, rat
Conditions: SD rats; for concentration at 0.5 h: 0.50 hr
Protocol: Plasma samples were taken at 8 time-points (IV) or 7 time points (oral) over a 24 hour period following a single dose of compound IB′ (3 animals per group). […] The plasma samples were also analyzed for the presence of compound IB′.

[1] = male, Sprague Dawley, rat, plasma, IV 1 mg/kg, read-out: Plasma concentration of compound IB′ itself
[2] = male, Sprague Dawley, rat, plasma, PO 10 mg/kg, read-out: Plasma concentration of compound IB′ itself

CN1CC[C@H](c2c(OP(=O)(O)O)cc(O)c3c(=O)cc(-c4ccccc4Cl)oc23)[C@H](O)C1 [Compound IB′, 2-(2-chlorophenyl)-5-hydroxy-8-(3-hydroxy-1-methylpiperidin-4-yl)-4-oxo-4H-chromen-7-yl dihydrogen phosphate]
Plasma concentration of compound IB′ itself (IV 1 mg/kg, 2.00 hr, 1 mg/kg): below quantitative levels and BQL
Plasma concentration of compound IB′ itself (IV 1 mg/kg, 4.00 hr): BQL
Plasma concentration of compound IB′ itself (IV 1 mg/kg, 6.00 hr): BQL
Plasma concentration of compound IB′ itself (IV 1 mg/kg, 8.00 hr): BQL
Plasma concentration of compound IB′ itself (IV 1 mg/kg, 24.00 hr): BQL
Plasma concentration of compound IB′ itself (PO 10 mg/kg, 2.00 hr, 10 mg/kg): below quantitative levels and BQL
Plasma concentration of compound IB′ itself (PO 10 mg/kg, 4.00 hr): BQL
Plasma concentration of compound IB′ itself (PO 10 mg/kg, 6.00 hr): BQL
Plasma concentration of compound IB′ itself (PO 10 mg/kg, 8.00 hr): BQL
Plasma concentration of compound IB′ itself (PO 10 mg/kg, 24.00 hr): BQL
concentration at 0.083 h (male, Sprague Dawley, rat, plasma, IV 1 mg/kg, 0.083 hr, read-out: Plasma concentration of compound IB′ itself): 430 ng/mL
concentration at 0.25 h [1]: 82 ng/mL
concentration at 0.5 h [1]: 24.6 ng/mL
concentration at 1 h [1]: 9.3 ng/mL
concentration at 0.25 h [2]: 30 ng/mL
concentration at 0.5 h [2]: 20.4 ng/mL
concentration at 1 h [2]: 9.3 ng/mL

— patent publication US12338261B2 (SUMITOMO PHARMA ONCOLOGY, INC., priority 2015, dated 2025)
